Data reported in patent US20220403345A1, “A MAMMALIAN-AVIAN CHIMERIC MODEL SYSTEM” (INNOVO MIMETICS LIMITED, priority 2019, published 2022).

System: PEA2 ovarian cancer cell line
Assay: PEA2 matrix pellet tumor on egg CAM treated with Carboplatin
Assay type: in vivo
Conditions: 400 μg Carboplatin intravenous injection at E13; tumor excised from E16 egg
Procedure: FIGS. 1A-1C are micrographs showing bright field images of a Matrigel® pellet formed comprising 3×10^5 cells of PEA2 ovarian cancer cell line. (1A) is an image of a liquid Matrigel® placed on ParafilmTM at 37° C. for 30 minutes and allowed to solidify before being placed on the CAM of an embryonic day 9 egg (E9; pellet circumference=3-5 mm). (1B) is an image of a tumor excised from an E16 egg following engraftment with a MATRIGEL® pellet, as shown in […]). […] (1C) is images of a low-passage ovarian cancer cell line derived from ascites liquid drained from a patient which was engrafted, and the resulting tumor was excised, fixed embedded, sectioned (7 μm) and stained with either (left) hematoxylin and eosin or (right) for expression of CD44 by immunohistochemistry (tumor diameter is 0.4 cm). The ovarian cancer cell line PEA2 was embedded in a matrix pellet by resuspending 3×10^5 PEA2 cells in 15 μl Matrigel®, on ice, and pipetting onto a solid surface (Parafilm) at 37° C. for 30 minutes (FIG. 1A). The Matrigel® pellet that formed was then placed on the CAM of an E9 egg, close to an underlying CAM blood vessel junction. It was not necessary to wound the CAM surface blood vessels in order to achieve a high rate of engraftment. […] Tissue sections (7 μm thick) were cut and analyzed by histology and immunohistochemistry for cell viability, proliferation and death (FIG. 1C).

For `N.N.O=C([O-])C1(C(=O)[O-])CCC1.[Pt+2]` [Carboplatin], the “tumor size compared to the original MATRIGEL pellet” value was “shrunk in size”.
